According to patent US4070473A, “Piperidino-butyrophenones” (AB Ferrosan, priority 1973, dated 1978):
Structures can show the parent of a compound that is named as a salt. Where two headings read alike, the source gives them in different places.

Legend:
[1] = Cataleptogenic effect in rats (measure of the extrapyramidal side effects) (Test 4); type: in vivo; details: rat, in vivo, sc
From the text: (§1) 4. Cataleptogenic effect in rats (measure of the extrapyramidal side effects).
(§2) 4. Stille, G. in Schweiz.

[2] = system: aggressive behaviour in male mice; assay: Inhibition of aggressive behaviour in male mice (Test 1); type: in vivo; details: for ED50: Mus musculus, sc, read-out: Inhibition of agression, mice ED50
From the text: Methylperon -- formula hereinbefore mentioned (R3 = H; R4 = CH3) chlorpromazine [drawing 23] in each of the following established standard tests: 1. Inhibition of aggressive behaviour in male mice.
1. Valzelli, L. in Aggressive Behaviour, Eds. Garattini and Sigg, p. 70 (1969)

[3] = system: conditioned avoidance response, rats; assay: Inhibition of conditioned behaviour (conditioned avoidance response) in rats (Test 5); type: in vivo; details: Rattus norvegicus, sc, read-out: Inhibition of conditioned avoidance response, rats ED50
From the text: 5. Inhibition of conditioned behaviour in rats. These tests were in accord with published test procedures and protocols, for instance: 5.

[4] = system: exploratory behaviour, mice; assay: Inhibition of climbing in mice (inhibition of exploratory behaviour) (Test 2); type: in vivo; details: Mus musculus, sc, read-out: Inhibition of exploratory behaviour, mice ED50
From the text: 2. Inhibition of climbing in mice (inhibition of exploratory behaviour).
2. Sandberg, S. in Arzneimittelforschung, 9, 203 (1958)

[5] = system: Amphetamine antagonism, rats; assay: Amphetamine antagonism in rats (antipsychotic effect) (Test 3); type: in vivo; details: for ED50: Rattus norvegicus, sc, read-out: Amphetamine antagonism, rats ED50; for activity in Test 3 (amphetamine antagonism; antipsychotic/anxiolytic effect), in words: Table-Test No. 3
From the text: 3. Amphetamine antagonism in rats (antipsychotic effect).
3. Randrup, A. et al. in Acta Pharmacol. (Kph), 20, 145 (1963)

[6] = Toxicity, subcutaneously on mice; details: mouse, in vivo, sc
From the text: The antipsychotic effect as shown in Test No. 3 is further confirmed by the blocking of apomorphine emesis in dogs. Ref: Janssen, P. A. J. et al. Arzneimittelforschung, 1, 1196 (1965) Furthermore, the compounds have a pronounced serotonine inhibiting effect, Ref: Alps, J. et al. Br. J. Pharmac. 44, 52 (1972) and a strong anti-inflammatory effect (measured with carrageenin-induced edema in rats). Ref: Takashima, T. et al. Arzneimittelforschung 22, 711 (1972) Their toxicity is rather low, 200 - 300 mg/kg. In comparison, the toxicity for haloperidol is 70 mg/kg and for methylperon is 280 mg/kg (all toxicities being performed subcutaneously on mice).

[7] = system: Cataleptogenic effect, rats; assay: Cataleptogenic effect in rats (measure of the extrapyramidal side effects) (Test 4); type: in vivo; details: rats, Table-Test No. 4
From the text: as §1, §2

[8] = rats, s.c., measure of the extrapyramidal side effects, read-out: Cataleptogenic effect, rats ED50

Row | SMILES | ED50 [1, 8] | ED50 ([2]; mice, s.c.) | ED50 ([3]; rats, s.c.) | ED50 ([4]; mice, s.c.) | ED50 ([5]; rats, s.c.) | ED50 [2] | ED50 [3] | ED50 [4] | ED50 [5] | activity in Test 3 (amphetamine antagonism; antipsychotic/anxiolytic effect), in words [5] | ED50 [1] | LD50 [6] | activity in Test 1 (antiaggressive), in words ([2]; Table-Test No. 1) | extrapyramidal / cataleptogenic effect, in words [7]
1 | CCCC1(OC)CCN(CCCC(=O)c2ccc(F)cc2)CC1 [Example 8] | 6.2 mg/kg | 0.5 mg/kg | 5.5 mg/kg | 3.1 mg/kg | 1 mg/kg |  |  |  |  |  |  |  |  | 
2 | CCCOC1(C)CCN(CCCC(=O)c2ccc(F)cc2)CC1 [Example 3] | 7 mg/kg | 0.35 mg/kg | 0.5 mg/kg | 1 mg/kg | 0.2 mg/kg |  |  |  |  |  |  |  |  | 
3 | CCOC1(CC)CCN(CCCC(=O)c2ccc(F)cc2)CC1 [Example 6, gamma-(4-ethyl-4-ethoxypiperidino)-p-fluoro-4-butyrophenone hydrochloride] | 5 mg/kg | 0.08 mg/kg | 1.5 mg/kg | 1.4 mg/kg | 0.1 mg/kg |  |  |  |  |  |  |  |  | 
4 | CCCCC1(OCC)CCN(CCCC(=O)c2ccc(F)cc2)CC1 [Example 12] | 3 mg/kg | 0.35 mg/kg | 5 mg/kg | 1.6 mg/kg | 0.07 mg/kg |  |  |  |  |  |  |  |  | 
5 | CCCCOC1(C)CCN(CCCC(=O)c2ccc(F)cc2)CC1.Cl [Example 4, gamma-(4-methyl-4-butoxypiperidino)-p-fluorobutyrophenone hydrochloride] | 20 mg/kg | 0.35 mg/kg | 2.5 mg/kg | 2 mg/kg | 0.75 mg/kg |  |  |  |  |  |  |  |  | 
6 | CCCOC1(CC)CCN(CCCC(=O)c2ccc(F)cc2)CC1 [Example 7] | 6 mg/kg | 0.7 mg/kg |  | 1.2 mg/kg | 0.35 mg/kg |  |  |  |  |  |  |  |  | 
7 | CN(C)CCCN1c2ccccc2Sc2ccc(Cl)cc21 [Chlorpromazine, reference compound] | 4.5 mg/kg |  |  |  |  | 0.4 mg/kg | 4.5 mg/kg | 0.75 mg/kg | 1.2 mg/kg | not very active |  |  |  | 
8 | COC1(C(C)C)CCN(CCCC(=O)c2ccc(F)cc2)CC1.Cl [Example 10, gamma-(4-isopropyl-4-methoxy-piperidino)-p-fluorobutyrophenone hydrochloride] | 5 mg/kg | 0.15 mg/kg | 1.2 mg/kg | 1.1 mg/kg | 0.1 mg/kg |  |  |  |  |  |  |  |  | 
9 | CC1CCN(CCCC(=O)c2ccc(F)cc2)CC1 [Methylperon, reference compound] |  | 2.2 mg/kg | 6.8 mg/kg | 2 mg/kg | 3.5 mg/kg |  |  |  |  | not very active | 12 mg/kg | 280 mg/kg | not very active | 
10 | CCC1(OC)CCN(CCCC(=O)c2ccc(F)cc2)CC1 [Example 5] | 10 mg/kg | 0.7 mg/kg | 1.5 mg/kg | 0.7 mg/kg | 0.1 mg/kg |  |  |  |  |  |  |  |  | 
11 | CCOC1(C)CCN(CCCC(=O)c2ccc(F)cc2)CC1 [Example 2] | 6 mg/kg | 0.7 mg/kg | 1.3 mg/kg | 1 mg/kg | 0.1 mg/kg |  |  |  |  |  |  |  |  | 
12 | O=C(CCCN1CCC(O)(c2ccc(Cl)cc2)CC1)c1ccc(F)cc1 [Haloperidol, reference compound] | 0.27 mg/kg |  |  |  |  | 0.8 mg/kg | 0.15 mg/kg | 1.3 mg/kg | 0.03 mg/kg |  |  | 70 mg/kg |  | pronounced cataleptogenic effect in rats
13 | CCCCCC1(OCC)CCN(CCCC(=O)c2ccc(F)cc2)CC1 [Example 13] | 6.8 mg/kg | 0.5 mg/kg |  | 1.3 mg/kg | 0.35 mg/kg |  |  |  |  |  |  |  |  | 
14 | COC1(C)CCN(CCCC(=O)c2ccc(F)cc2)CC1 [Example 1, gamma-(4-methyl-4-methoxy-piperidino)-p-fluorobutyrophenone] | 10 mg/kg | 0.2 mg/kg | 0.6 mg/kg | 0.65 mg/kg | 0.35 mg/kg |  |  |  |  |  |  |  |  | 
